Test results as given in ChEMBL document CHEMBL1124651, “Cytostatic trans-platinum(II) complexes” (J Med Chem, 1989).
Values joined by “and” are separate entries in the source; they are usually repeats but may differ in a detail not shown here. Equal values may be shown once.

Key:
[1] = test system: P388; assay: Anti tumor activity expressed as median survival time of treated BDF1 mice bearing P388 leukemia cells versus untreated controls; type: functional, cell-based; conditions: Mus musculus
[2] = test system: Mus musculus; assay: Maximum dose at which all tested BDF1 mice survived after 30 days of intraperitoneal dosage; type: functional
[3] = test system: L1210; assay: Compound was evaluated for its inhibitory dose against L1210 leukemia cell line; type: functional, cell-based; conditions: Mus musculus

For Cis-[PtCl2(gamma-pic)2] complex, the T/C [1] was 105% and 119%.
Work on CISPLATIN yielded an LD0 [2] of 30 µM/kg, a T/C [1] of 205% and an ID50 [3] of 2.3 µM.
TRANSPLATIN showed an LD0 [2] of 167 µM/kg, a T/C [1] of 116% and an ID50 [3] of 67 µM.
